# Experimental data from patent US11130762B2, “Azaaryl derivative, preparation method therefor, and application thereof for use in pharmacy” (Abbisko Therapeutics Co., Ltd., priority 2017, dated 2021).
# Where two headings read alike, the source gives them in different places.
# Legend:
# PDGFRA kinase = PDGFRA kinase (Homo sapiens, UniProt P16234); experiment: PDGFRA in vitro biochemical kinase study (Caliper EZ Reader); details: Caliper mobility shift; read-out: Enzymatic experiment PDGFRA IC50
# Chain of PDGFRA kinase (P16234 24-1089): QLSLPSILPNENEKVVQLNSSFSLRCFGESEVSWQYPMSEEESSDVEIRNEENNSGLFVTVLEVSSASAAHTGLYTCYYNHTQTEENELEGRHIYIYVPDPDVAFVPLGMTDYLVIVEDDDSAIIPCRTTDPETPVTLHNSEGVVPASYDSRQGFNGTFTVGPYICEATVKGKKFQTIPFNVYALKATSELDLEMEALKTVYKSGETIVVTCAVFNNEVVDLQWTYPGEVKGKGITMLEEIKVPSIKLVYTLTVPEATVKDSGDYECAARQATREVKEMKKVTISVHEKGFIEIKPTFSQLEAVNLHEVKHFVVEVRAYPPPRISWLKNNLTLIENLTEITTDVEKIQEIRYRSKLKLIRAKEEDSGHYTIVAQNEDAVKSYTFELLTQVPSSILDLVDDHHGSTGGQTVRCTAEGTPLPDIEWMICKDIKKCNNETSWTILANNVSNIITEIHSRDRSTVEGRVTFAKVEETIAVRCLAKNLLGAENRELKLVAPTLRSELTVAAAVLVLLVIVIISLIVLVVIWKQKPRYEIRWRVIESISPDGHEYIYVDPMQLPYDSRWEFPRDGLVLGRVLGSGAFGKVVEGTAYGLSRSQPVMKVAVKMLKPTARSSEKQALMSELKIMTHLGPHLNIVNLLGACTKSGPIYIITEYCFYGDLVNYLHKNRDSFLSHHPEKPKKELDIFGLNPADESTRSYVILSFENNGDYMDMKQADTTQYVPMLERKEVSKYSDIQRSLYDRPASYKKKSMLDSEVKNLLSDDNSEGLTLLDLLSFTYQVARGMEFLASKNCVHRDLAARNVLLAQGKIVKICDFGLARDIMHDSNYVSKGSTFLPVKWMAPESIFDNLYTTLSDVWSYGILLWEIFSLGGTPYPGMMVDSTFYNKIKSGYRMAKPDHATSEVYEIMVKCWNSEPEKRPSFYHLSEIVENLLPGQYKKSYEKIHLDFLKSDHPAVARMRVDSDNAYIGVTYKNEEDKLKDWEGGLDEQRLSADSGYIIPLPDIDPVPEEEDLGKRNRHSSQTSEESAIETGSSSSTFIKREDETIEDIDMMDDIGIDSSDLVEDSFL
# Experimental: B. KIT/PDGFRA In Vitro Biochemical Kinase Study
# 1. Preparation of 1-Fold Kinase Buffer and Stop Solution
# 1.2 stop solution: 100 mM HEPES, pH 7.5, 0.015% Brij-35, 0.2% Coating Reagent #3, 50 mM EDTA
# 2. Preparation of Compound Solution
# 2.1 Dilution of Compound Solution
# 1) The final concentration of the compound solution was 40 μM, and the concentration of the prepared stock solution was 50 times of the final concentration, i.e., 2 mM.
# 2) 80 μL of 100% DMSO was added to the second well of the 96-well plate, then 20 μL of 10 mM compound solution was added, and thereby 2 mM compound solution was prepared, 60 μL of 100% DMSO was added to other wells, 20 μL of compound was taken from the second well, added to the third well and diluted by 4 times. This serial 4-time dilution was conducted in sequence for the total of 10 concentrations.
# 2.2 5-Fold Compound Solution Transferred to a Reaction Plate
# 1) 10 μL of solution was taken from each well of the above 96-well plate and added to another 96-well plate, and 90 μL of kinase buffer was added.
# 2) 5 μL of solution was taken from the above 96-well plate and added to a 384-well reaction plate.
# 1) KIT/PDGFRA kinase was added to the 1-fold kinase buffer solution to obtain a 2.5-fold kinase solution.
# 2) FAM-labeled polypeptide and ATP were added to the 1-fold kinase buffer solution to obtain a 2.5-fold substrate solution.
# 3) 10 μL of 2.5-fold kinase solution was added to the 384-well reaction plate, which already contained 5 μL of 5-fold compound in 10% DMSO. And the mixed solution was incubated at room temperature for 10 min.
# 4) 10 μL of 2.5-fold substrate solution was added to the 384-well reaction plate.
# 5) Kinase reaction and termination: the mixed solution was incubated at 28° C. for a certain period of time, and 25 μL of stop solution was added to stop the reaction.
# 2.4 Data Reading of Caliper EZ Reader II
# 2.5 Calculation of Percent Inhibition and IC50
# 1) Percent conversion data were copied from the Caliper EZ Reader. […]
# [1] = tested on: M-NFS-60 mouse myeloid leukemia lymphocytes; experiment: CSF-1R-related cell proliferation experiment (Cell Titer Glo), M-NFS-60 cells with M-CSF; assay type: cell-based; details: Lymphocyte, 72 h, 3 days, CTG, * = average of multiple tests
# Experimental: C. CSF-1R-Related Cell Proliferation Experiment
# Functional effects of compounds on cell proliferation were evaluated by using Cell Titer Glo (CTG) study in the present invention. M-NFS-60 mouse myeloid leukemia lymphocytes (cat. No. CCBJ078) from National Institutes For Food and Drug Control were cultured in the incubator under conditions of RPMI 1640 (Gibco, cat. No. 11875-119), 10% fetal bovine serum (Gibco, 10099-141), human 10 ng/mL M-CSF macrophage colony-stimulating factor (R&D, cat. No. MVN0915101), 37° C., and 5% CO2. Since ATP is an index for viable cell metabolism, CTG (Promega, #G7573) reagent is a homogeneous detection method for detecting the number of viable cells in the culture by quantifying ATP. Therefore, compound-mediated inhibition for cell proliferation/survival was evaluated by quantifying ATP content in cells, and the specific experimental process was as follows:
# 1. The cells were plated into a tissue-culture-medium-treated 96-well plate (Costar #3904) with 5,000 cells/well/80 μL fresh culture medium;
# 2. 24 hours later, 10 μL culture medium containing testing compound with 10-fold of final concentration was added to each well;
# 3. 10 μL of culture medium containing M-CSF with 10-fold of the final concentration was then added to each well;
# 4. dosage effect was evaluated by testing the 3-fold serial dilutions of the compound;
# 5. after the cells were incubated for 3 days at 37° C. and 5% CO2, the inhibition on cell survival was quantified after 50 μL of CTG was added and the luminescence assay was performed;
# 6. the compound concentration leading to half maximal inhibitory (IC50) and the compound concentration leading to absolute half maximal inhibitory (Absolute IC50) were measured by a plate reader (M1000, Tecan) and a four-parameter curve fit in Graphpad Prism 7.
# CSF-1R = CSF-1R (Homo sapiens, UniProt P07333); experiment: CSF-1R in vitro biochemical kinase study (ADP-Glo assay); details: 500 μM ATP, * = average of multiple tests, read-out: Enzymatic experiment CSF1R IC50
# Chain of CSF-1R (P07333 20-972): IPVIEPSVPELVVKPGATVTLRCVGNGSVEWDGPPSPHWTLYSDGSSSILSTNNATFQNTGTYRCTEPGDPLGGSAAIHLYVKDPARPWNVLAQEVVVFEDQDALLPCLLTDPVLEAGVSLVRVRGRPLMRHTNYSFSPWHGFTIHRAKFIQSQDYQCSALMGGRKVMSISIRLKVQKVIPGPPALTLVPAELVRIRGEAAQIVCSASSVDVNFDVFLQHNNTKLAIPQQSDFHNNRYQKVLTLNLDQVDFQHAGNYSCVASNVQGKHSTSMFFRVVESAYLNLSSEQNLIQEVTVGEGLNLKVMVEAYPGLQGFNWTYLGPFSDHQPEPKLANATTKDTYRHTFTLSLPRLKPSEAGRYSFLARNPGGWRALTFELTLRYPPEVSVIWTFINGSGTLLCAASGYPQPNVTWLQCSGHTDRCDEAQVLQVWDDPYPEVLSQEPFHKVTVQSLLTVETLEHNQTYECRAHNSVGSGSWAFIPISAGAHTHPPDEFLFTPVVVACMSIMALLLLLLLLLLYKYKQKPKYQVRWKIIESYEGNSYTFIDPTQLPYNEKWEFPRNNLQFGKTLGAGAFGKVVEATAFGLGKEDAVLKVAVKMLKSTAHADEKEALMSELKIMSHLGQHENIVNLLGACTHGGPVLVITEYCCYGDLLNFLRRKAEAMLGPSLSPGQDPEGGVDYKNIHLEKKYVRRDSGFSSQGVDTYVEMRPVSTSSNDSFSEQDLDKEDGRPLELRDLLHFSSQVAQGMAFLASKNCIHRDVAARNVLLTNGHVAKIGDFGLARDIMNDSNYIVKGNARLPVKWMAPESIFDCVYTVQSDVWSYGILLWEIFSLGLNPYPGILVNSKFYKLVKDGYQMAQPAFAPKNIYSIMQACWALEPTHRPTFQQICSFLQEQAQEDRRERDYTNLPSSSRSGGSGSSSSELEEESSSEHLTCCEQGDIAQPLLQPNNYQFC
# Experimental: A. CSF-1R In Vitro Biochemical Kinase Study
# In the present invention, the inhibitory activity of compounds against the CSF-1R activity was determined by using CSF-1R ADP-Glo assay. The compound-mediated inhibition effect was achieved by inhibiting the production of ADP from consumption of ATP, and the activities of compounds were evaluated by using the ADP-Glo kit (Promega, cat. No. V9101). The specific experimental process was as follows:
# 1. The kinase reaction performed in the present invention was carried out in a 384-well plate (Perkinelmer, cat. No. 6007290), 3.95 nM of CSF-1R, 500 μM of ATP, and 0.2 mg/mL of polypeptide (Poly (Glu4, Try1), Sigma, cat. No. P0275) were respectively weighed and added to each well:
# 2. following reagents were then added to each well to reach the final reaction system: 40 mM Tris, pH 7.5, 20 mM MgCl2, 0.01% Triton X-100, 0.1 mg/mL BSA, 2.5 mM DTT, and 0.1% DMSO;
# 3. the reaction was conducted at 30° C. for 60 min;
# 4. then an equal volume of stop solution (ADP-Glo) was added to the kinase reaction system;
# 5. the mixed solution was incubated at 25° C. for 60 min, and the kinase reaction was then terminated;
# 6. a two-fold volume of detection reagent was then added to each well;
# 7. the mixed solution was incubated at 25° C. for 30 min;
# 8. the compound IC50 value was measured by using a plate reader (Tecan, M1000) and a four-parameter curve was generated in Graphpad Prism.
# [2] = read-out: Cytological experiment CSF1R IC50
# [3] = absolute half maximal inhibition, read-out: Cytological experiment CSF-1R Absolute IC50
SMILES,IC50 (PDGFRA kinase),"IC50 [1, 2]","IC50 [1, 3]",IC50 (CSF-1R)
"Cc1nc(-c2cnc3n(c2=O)CCCN3C)ccc1Oc1ccnc(-c2cnn(C)c2)c1 [Example 1, 9-methyl-3-(6-methyl-5-((2-(1-methyl-1H-pyrazol-4-yl)pyridin-4-yl)oxy)pyridin-2-yl)-6,7,8,9-tetrahydro-4H-pyrimido[1,2-a]pyrimidin-4-one]",9310 nM,101 nM,95.6 nM,73.7 nM
CCN1CCCn2c1ncc(-c1ccc(Oc3ccnc(-c4cnn(C)c4)c3)c(C)n1)c2=O [Example 4],757 nM,38 nM,20.2 nM,90.7 nM
